Reference: publication PMC5845353, “The selective cathepsin K inhibitor MIV-711 attenuates joint pathology in experimental animal models of osteoarthritis” (Journal of Translational Medicine, 2018)

System: rabbits subjected to anterior cruciate ligament transection (ACLT)
Assay: Rabbit ACLT study, histomorphometry of bone, cartilage and osteophytes
Assay type: in vivo
Protocol: The femora and tibias were decalcified, embedded in paraffin, sectioned at 5-7 µm at two different levels separated by approximately 2 mm, and stained with safranin O and toluidine blue.
Both tibial plateaus and femoral condyles (i.e. four joint compartments) were also subjected to histomorphometric analysis of cartilage, subchondral bone, cancellous bone, and osteophytes. The measurements were made using OsteoMeasureXP version 3.3.0.2 as follows:
Uncalcified cartilage area was measured by tracing the articular surface (cartilage perimeter) and bone or calcified cartilage/uncalcified cartilage interface (cartilage boundary).
Cartilage width was measured by point to point measurement at intersections between a sampling grid with approximately 0.5 mm spacing and the cartilage boundary. The intercepts measured were orthogonal to the cartilage boundary and ended at the cartilage perimeter. At intersections where the cartilage width was zero due to erosion, a value of zero was recorded.
Subchondral bone width was measured by point to point measurement at intersections between a sampling grid with approximately 0.5 mm spacing and the cartilage boundary. The intercepts measured were orthogonal to the cartilage boundary and ended at the first marrow cavity encountered that had at least one dimension approximately equivalent to nearby trabecular thickness.
Osteophyte area was measured for abaxial osteophytes. On the femur, osteophytes associated with the condyles but not with the trochlear grooves were measured.
Bone area (including osteoid) and perimeter were measured in a 3.8 X 1.5 mm ROI centered approximately 1 mm below the bone/cartilage interface. This ROI was intended to be equivalent to the subchondral cancellous bone VOI measured by microCT. Bone volume (BV/TV), trabecular thickness (Tb.Th), trabecular number (Tb.N) and trabecular separation (Tb.Sp) were derived from these measurements using standard formulae.
Slides were evaluated in animal ID order, i.e. in random order with respect to treatment, so that the measurer was effectively blinded to treatment assignment.
Analysis was performed on all four condyles at two levels (Level 1 and 2) for each condyle:
Group 1) sham + vehicle; Group 2) ACLT + vehicle; Group 3) ACLT + MIV-711, 30 µmol/kg (low dose) and Group 4) ACLT + MIV-711, 100 µmol/kg (high dose).

[1] = Level 2, MFC, Group 3: ACLT + MIV-711, 30 µmol/kg (low dose)
[2] = Level 2, MFC, Group 4: ACLT + MIV-711, 100 µmol/kg (high dose)
[3] = Level 2, MTP, Group 3: ACLT + MIV-711, 30 µmol/kg (low dose)
[4] = Level 2, MTP, Group 4: ACLT + MIV-711, 100 µmol/kg (high dose)

C#C[C@@H]1CN(C(=O)[C@H](CC(C)C)NC(=O)c2ccc(-c3nc(N4CCN(C)CC4)sc3F)cc2)[C@@H]2C(=O)CO[C@H]12 [MIV-711]
Tb.Th, Median (Level 1 MFC, Group 4, ACLT + MIV-711 100 µmol/kg): 161.50 µm | BV/TV, Mean (Level 2, LFC, Group 3): 36.23% | BV/TV, Median (Level 2, LFC, Group 3): 35.15% | Cart.Ar, Mean (Level 2, LFC, Group 3): 1.54 mm2 | Cart.Ar, Median (Level 2, LFC, Group 3): 1.50 mm2 | Cart.Bd, Mean (Level 2, LFC, Group 3): 5.95 mm | Cart.Bd, Median (Level 2, LFC, Group 3): 5.45 mm | Cart.Pm, Mean (Level 2, LFC, Group 3): 6.68 mm | Cart.Pm, Median (Level 2, LFC, Group 3): 6.07 mm | Cart.Wi, Mean (Level 2, LFC, Group 3): 252.24 µm | Cart.Wi, Median (Level 2, LFC, Group 3): 265.00 µm | Ophte.Ar, Mean (Level 2, LFC, Group 3): 1.80 mm2 | Ophte.Ar, Median (Level 2, LFC, Group 3): 1.91 mm2 | SCB.Wi, Mean (Level 2, LFC, Group 3): 625.26 µm | SCB.Wi, Median (Level 2, LFC, Group 3): 686.73 µm | Tb.N, Mean (Level 2, LFC, Group 3): 2.86 1/mm | Tb.N, Median (Level 2, LFC, Group 3): 3.01 1/mm | Tb.Sp, Mean (Level 2, LFC, Group 3): 227.32 µm | Tb.Sp, Median (Level 2, LFC, Group 3): 224.93 µm | Tb.Th, Mean (Level 2, LFC, Group 3): 129.54 µm | Tb.Th, Median (Level 2, LFC, Group 3): 124.26 µm | BV/TV, Mean (Level 2, LFC, Group 4): 36.75% | BV/TV, Median (Level 2, LFC, Group 4): 38.04% | Cart.Ar, Mean (Level 2, LFC, Group 4): 1.69 mm2 | Cart.Ar, Median (Level 2, LFC, Group 4): 1.76 mm2 | Cart.Bd, Mean (Level 2, LFC, Group 4): 7.36 mm | Cart.Bd, Median (Level 2, LFC, Group 4): 7.45 mm | Cart.Pm, Mean (Level 2, LFC, Group 4): 8.13 mm | Cart.Pm, Median (Level 2, LFC, Group 4): 8.16 mm | Cart.Wi, Mean (Level 2, LFC, Group 4): 223.79 µm | Cart.Wi, Median (Level 2, LFC, Group 4): 238.09 µm | Ophte.Ar, Mean (Level 2, LFC, Group 4): 4.60 mm2 | Ophte.Ar, Median (Level 2, LFC, Group 4): 1.57 mm2 | SCB.Wi, Mean (Level 2, LFC, Group 4): 500.70 µm | SCB.Wi, Median (Level 2, LFC, Group 4): 462.81 µm | Tb.N, Mean (Level 2, LFC, Group 4): 3.05 1/mm | Tb.N, Median (Level 2, LFC, Group 4): 2.97 1/mm | Tb.Sp, Mean (Level 2, LFC, Group 4): 212.50 µm | Tb.Sp, Median (Level 2, LFC, Group 4): 210.44 µm | Tb.Th, Mean (Level 2, LFC, Group 4): 120.73 µm | Tb.Th, Median (Level 2, LFC, Group 4): 120.14 µm | BV/TV, Mean (Level 2, LTP, Group 3): 42.02% | BV/TV, Median (Level 2, LTP, Group 3): 40.17% | Cart.Ar, Mean (Level 2, LTP, Group 3): 0.88 mm2 | Cart.Ar, Median (Level 2, LTP, Group 3): 0.95 mm2 | Cart.Bd, Mean (Level 2, LTP, Group 3): 4.27 mm | Cart.Bd, Median (Level 2, LTP, Group 3): 4.41 mm | Cart.Pm, Mean (Level 2, LTP, Group 3): 4.26 mm | Cart.Pm, Median (Level 2, LTP, Group 3): 4.48 mm | Cart.Wi, Mean (Level 2, LTP, Group 3): 207.98 µm | Cart.Wi, Median (Level 2, LTP, Group 3): 203.75 µm | Ophte.Ar, Mean (Level 2, LTP, Group 3): 1.40 mm2 | Ophte.Ar, Median (Level 2, LTP, Group 3): 1.23 mm2 | SCB.Wi, Mean (Level 2, LTP, Group 3): 531.17 µm | SCB.Wi, Median (Level 2, LTP, Group 3): 547.82 µm | Tb.N, Mean (Level 2, LTP, Group 3): 2.93 1/mm | Tb.N, Median (Level 2, LTP, Group 3): 3.04 1/mm | Tb.Sp, Mean (Level 2, LTP, Group 3): 202.17 µm | Tb.Sp, Median (Level 2, LTP, Group 3): 206.70 µm | Tb.Th, Mean (Level 2, LTP, Group 3): 146.36 µm | Tb.Th, Median (Level 2, LTP, Group 3): 148.82 µm | BV/TV, Mean (Level 2, LTP, Group 4): 39.84% | BV/TV, Median (Level 2, LTP, Group 4): 38.48% | Cart.Ar, Mean (Level 2, LTP, Group 4): 1.20 mm2 | Cart.Ar, Median (Level 2, LTP, Group 4): 1.00 mm2 | Cart.Bd, Mean (Level 2, LTP, Group 4): 4.73 mm | Cart.Bd, Median (Level 2, LTP, Group 4): 4.37 mm | Cart.Pm, Mean (Level 2, LTP, Group 4): 5.10 mm | Cart.Pm, Median (Level 2, LTP, Group 4): 4.58 mm | Cart.Wi, Mean (Level 2, LTP, Group 4): 263.50 µm | Cart.Wi, Median (Level 2, LTP, Group 4): 255.71 µm | Ophte.Ar, Mean (Level 2, LTP, Group 4): 1.37 mm2 | Ophte.Ar, Median (Level 2, LTP, Group 4): 1.37 mm2 | SCB.Wi, Mean (Level 2, LTP, Group 4): 559.05 µm | SCB.Wi, Median (Level 2, LTP, Group 4): 594.94 µm | Tb.N, Mean (Level 2, LTP, Group 4): 2.47 1/mm | Tb.N, Median (Level 2, LTP, Group 4): 2.50 1/mm | Tb.Sp, Mean (Level 2, LTP, Group 4): 250.77 µm | Tb.Sp, Median (Level 2, LTP, Group 4): 246.02 µm | Tb.Th, Mean (Level 2, LTP, Group 4): 161.80 µm | Tb.Th, Median (Level 2, LTP, Group 4): 153.89 µm | BV/TV, Mean (Level 2, MFC, Group 3): 50.84% | BV/TV, Median (Level 2, MFC, Group 3): 46.53% | Cart.Ar, Mean [1]: 1.47 mm2 | Cart.Ar, Median [1]: 1.46 mm2 | Cart.Bd, Mean [1]: 6.28 mm | Cart.Bd, Median [1]: 6.09 mm | Cart.Pm, Mean [1]: 6.91 mm | Cart.Pm, Median [1]: 6.73 mm | Cart.Wi, Mean [1]: 223.23 µm | Cart.Wi, Median [1]: 234.59 µm | Ophte.Ar, Mean [1]: 2.89 mm2 | Ophte.Ar, Median [1]: 3.00 mm2 | SCB.Wi, Mean [1]: 694.43 µm | SCB.Wi, Median [1]: 608.27 µm | Tb.N, Mean [1]: 2.80 1/mm | Tb.N, Median [1]: 2.86 1/mm | Tb.Sp, Mean [1]: 174.68 µm | Tb.Sp, Median [1]: 185.17 µm | Tb.Th, Mean [1]: 189.67 µm | Tb.Th, Median [1]: 161.11 µm | BV/TV, Mean (Level 2, MFC, Group 4): 43.61% | BV/TV, Median (Level 2, MFC, Group 4): 41.52% | Cart.Ar, Mean [2]: 1.41 mm2 | Cart.Ar, Median [2]: 1.41 mm2 | Cart.Bd, Mean [2]: 6.12 mm | Cart.Bd, Median [2]: 6.18 mm | Cart.Pm, Mean [2]: 6.67 mm | Cart.Pm, Median [2]: 6.55 mm | Cart.Wi, Mean [2]: 222.96 µm | Cart.Wi, Median [2]: 218.64 µm | Ophte.Ar, Mean [2]: 2.78 mm2 | Ophte.Ar, Median [2]: 2.43 mm2 | SCB.Wi, Mean [2]: 570.45 µm | SCB.Wi, Median [2]: 510.39 µm | Tb.N, Mean [2]: 3.01 1/mm | Tb.N, Median [2]: 3.07 1/mm | Tb.Sp, Mean [2]: 189.22 µm | Tb.Sp, Median [2]: 197.91 µm | Tb.Th, Mean [2]: 144.65 µm | Tb.Th, Median [2]: 140.49 µm | BV/TV, Mean [3]: 39.18% | BV/TV, Median [3]: 39.13% | Cart.Ar, Mean [3]: 0.74 mm2 | Cart.Ar, Median [3]: 0.67 mm2 | Cart.Bd, Mean [3]: 2.32 mm | Cart.Bd, Median [3]: 2.31 mm | Cart.Pm, Mean [3]: 2.43 mm | Cart.Pm, Median [3]: 2.27 mm | Cart.Wi, Mean [3]: 312.01 µm | Cart.Wi, Median [3]: 270.73 µm | Ophte.Ar, Mean [3]: 5.73 mm2 | Ophte.Ar, Median [3]: 3.43 mm2 | SCB.Wi, Mean [3]: 747.49 µm | SCB.Wi, Median [3]: 739.43 µm | Tb.N, Mean [3]: 2.37 1/mm | Tb.N, Median [3]: 2.27 1/mm | Tb.Sp, Mean [3]: 257.90 µm | Tb.Sp, Median [3]: 251.22 µm | Tb.Th, Mean [3]: 166.79 µm | Tb.Th, Median [3]: 176.63 µm | BV/TV, Mean [4]: 33.87% | BV/TV, Median [4]: 33.99% | Cart.Ar, Mean [4]: 1.78 mm2 | Cart.Ar, Median [4]: 0.71 mm2 | Cart.Bd, Mean [4]: 2.50 mm | Cart.Bd, Median [4]: 2.18 mm | Cart.Pm, Mean [4]: 2.70 mm | Cart.Pm, Median [4]: 2.14 mm | Cart.Wi, Mean [4]: 282.89 µm | Cart.Wi, Median [4]: 257.34 µm | Ophte.Ar, Mean [4]: 10.32 mm2 | Ophte.Ar, Median [4]: 6.59 mm2 | SCB.Wi, Mean [4]: 575.52 µm | SCB.Wi, Median [4]: 691.04 µm | Tb.N, Mean [4]: 2.15 1/mm | Tb.N, Median [4]: 1.97 1/mm | Tb.Sp, Mean [4]: 317.92 µm | Tb.Sp, Median [4]: 313.76 µm | Tb.Th, Mean [4]: 160.02 µm | Tb.Th, Median [4]: 151.52 µm
